Where two headings read alike, the source gives them in different places.
How the values were obtained:
Format in all cases: cell-based
NR2F6 = target: T1, NR2F6 (Homo sapiens, UniProt P10588); assay: NR2F6 agonist screening, Firefly signal cmpd/DMSO
T1 construct: expressed in transfected cells; also transient transfection
T1 sequence (P10588 1-404): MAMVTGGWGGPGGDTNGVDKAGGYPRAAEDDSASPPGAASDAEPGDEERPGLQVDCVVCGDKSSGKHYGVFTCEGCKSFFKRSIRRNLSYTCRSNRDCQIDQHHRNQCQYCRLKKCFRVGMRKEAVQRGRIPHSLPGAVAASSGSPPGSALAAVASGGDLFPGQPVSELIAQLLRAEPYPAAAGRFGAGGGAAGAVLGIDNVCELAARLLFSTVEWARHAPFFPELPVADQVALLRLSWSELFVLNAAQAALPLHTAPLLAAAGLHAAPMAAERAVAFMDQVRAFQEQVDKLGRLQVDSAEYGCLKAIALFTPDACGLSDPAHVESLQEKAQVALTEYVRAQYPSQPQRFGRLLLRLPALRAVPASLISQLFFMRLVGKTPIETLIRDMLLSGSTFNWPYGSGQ

Renilla [1] = assay: Renilla signal in NR2F6 agonist screening, cmpd/DMSO; details: Renilla
HEK293 pGL4 = assay: Firefly_pGL signal, cmpd/DMSO (pGL4 control cells); details: Homo sapiens
NR2F6 LBD = target: T2, NR2F6 LBD (Homo sapiens, UniProt P10588); assay: NR2F6 LBD transient transfection
T2 construct: expressed in transfected cells
T2 sequence (P10588 165-393 limits assumed): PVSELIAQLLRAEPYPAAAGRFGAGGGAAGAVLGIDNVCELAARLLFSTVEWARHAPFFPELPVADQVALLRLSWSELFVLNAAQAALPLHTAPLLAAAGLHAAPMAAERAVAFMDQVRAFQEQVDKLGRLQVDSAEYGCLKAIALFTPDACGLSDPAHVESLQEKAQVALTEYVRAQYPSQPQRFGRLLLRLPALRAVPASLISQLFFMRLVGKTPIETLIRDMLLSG
Summary of the method: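 LBD-transfected cells treated at 40, 10, 2 and 0.5 μM (4 replicates); cytotoxicity measured in parallel, normalized to DMSO (0%) and zero signal (100%). Higher concentrations excluded where signal loss reflected toxicity.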

Renilla [2] = assay: Renilla signal, LBD, cmpd/DMSO (NR2F6 LBD transfected cells)
[3] = read-out: Renilla F4, cmpd/DMSO (mean)
[4] = F4, 1% FBS, read-out: Renilla, F4, 1% FBS, cmpd/DMSO (mean)
[5] = F4, 10% FBS, read-out: Renilla, F4, 10% FBS, cmpd/DMSO (mean)
[6] = HEK293, 0.5 uM, read-out: Firefly pGL4, cmpd/DMSO (mean)
[7] = HEK293, 2 uM, read-out: Firefly pGL4, cmpd/DMSO (mean)
[8] = HEK293, 10 uM, read-out: Firefly pGL4, cmpd/DMSO (mean)
[9] = HEK293, 40 uM, read-out: Firefly pGL4, cmpd/DMSO (mean)
[10] = HEK293, pGL4, 1% FBS, 0.5 uM, read-out: Firefly, pGL4, 1% FBS, cmpd/DMSO (mean)
[11] = HEK293, pGL4, 1% FBS, 2 uM, read-out: Firefly, pGL4, 1% FBS, cmpd/DMSO (mean)
[12] = HEK293, pGL4, 1% FBS, 10 uM, read-out: Firefly, pGL4, 1% FBS, cmpd/DMSO (mean)
[13] = HEK293, pGL4, 1% FBS, 40 uM, read-out: Firefly, pGL4, 1% FBS, cmpd/DMSO (mean)
[14] = HEK293, pGL4, 10% FBS, 0.5 uM, read-out: Firefly, pGL4, 10% FBS, cmpd/DMSO (mean)
[15] = HEK293, pGL4, 10% FBS, 2 uM, read-out: Firefly, pGL4, 10% FBS, cmpd/DMSO (mean)
[16] = HEK293, pGL4, 10% FBS, 10 uM, read-out: Firefly, pGL4, 10% FBS, cmpd/DMSO (mean)
[17] = HEK293, pGL4, 10% FBS, 40 uM, read-out: Firefly, pGL4, 10% FBS, cmpd/DMSO (mean)

O=S1(=O)C[C@H](NCC2CCCO2)[C@@H](S(=O)(=O)c2cccs2)C1 (stereo partly drawn) [Compound D134]
Firefly F4, cmpd/DMSO (mean) (NR2F6; 0.5 uM): 1.5 | Firefly F4, cmpd/DMSO (mean) (NR2F6; 2 uM): 2.3 | Firefly F4, cmpd/DMSO (mean) (NR2F6; 10 uM): 2.1 | Firefly F4, cmpd/DMSO (mean) (NR2F6; 40 uM): 2.8 | F4, Firefly/Renilla for S/B(F4) > 3 (NR2F6; 1% FBS, 40 uM): 2.6 | Firefly, F4/pGL4 for S/B(F4) > 3 (NR2F6; 1% FBS, 40 uM): 4.0 | F4, Firefly/Renilla for S/B(F4) > 3 (NR2F6; 10% FBS, 40 uM): 2.3 | Firefly, F4/pGL4 for S/B(F4) > 3 (NR2F6; 10% FBS, 40 uM): 2.3 | Firefly, F4, 1% FBS, cmpd/DMSO (mean) (NR2F6; 1% FBS, 0.5 uM): 1.0 | Firefly, F4, 1% FBS, cmpd/DMSO (mean) (NR2F6; 1% FBS, 2 uM): 1.2 | Firefly, F4, 1% FBS, cmpd/DMSO (mean) (NR2F6; 1% FBS, 10 uM): 2.0 | Firefly, F4, 1% FBS, cmpd/DMSO (mean) (NR2F6; 1% FBS, 40 uM): 5.4 | Firefly, F4, 10% FBS, cmpd/DMSO (mean) (NR2F6; 10% FBS, 0.5 uM): 1.1 | Firefly, F4, 10% FBS, cmpd/DMSO (mean) (NR2F6; 10% FBS, 2 uM): 1.0 | Firefly, F4, 10% FBS, cmpd/DMSO (mean) (NR2F6; 10% FBS, 10 uM): 2.1 | Firefly, F4, 10% FBS, cmpd/DMSO (mean) (NR2F6; 10% FBS, 40 uM): 4.6 | fold induction at 0.5 µM (Renilla [1]; [3]): 1.1 | fold induction at 2 µM (Renilla [1]; [3]): 1.2 | fold induction at 10 µM (Renilla [1]; [3]): 1.3 | fold induction at 40 µM (Renilla [1]; [3]): 1.5 | fold induction at 0.5 µM (Renilla [1]; [4]): 1 | fold induction at 2 µM (Renilla [1]; [4]): 1.2 | fold induction at 10 µM (Renilla [1]; [4]): 1.4 | fold induction at 40 µM (Renilla [1]; [4]): 2.1 | fold induction at 0.5 µM (Renilla [1]; [5]): 1 | fold induction at 2 µM (Renilla [1]; [5]): 1 | fold induction at 10 µM (Renilla [1]; [5]): 1.3 | fold induction at 40 µM (Renilla [1]; [5]): 2 | fold induction at 0.5 µM (HEK293 pGL4; [6]): 1 | fold induction at 2 µM (HEK293 pGL4; [7]): 1.3 | fold induction at 10 µM (HEK293 pGL4; [8]): 1.6 | fold induction at 40 µM (HEK293 pGL4; [9]): 1.7 | fold induction at 0.5 µM (HEK293 pGL4; [10]): 1 | fold induction at 2 µM (HEK293 pGL4; [11]): 1.3 | fold induction at 10 µM (HEK293 pGL4; [12]): 1.3 | fold induction at 40 µM (HEK293 pGL4; [13]): 1.4 | fold induction at 0.5 µM (HEK293 pGL4; [14]): 1.2 | fold induction at 2 µM (HEK293 pGL4; [15]): 1.3 | fold induction at 10 µM (HEK293 pGL4; [16]): 1.7 | fold induction at 40 µM (HEK293 pGL4; [17]): 2 | Firefly LBD, cmpd/DMSO (mean) (NR2F6 LBD; 0.5 uM): 1.5 | Firefly LBD, cmpd/DMSO (mean) (NR2F6 LBD; 2 uM): 1.5 | Firefly LBD, cmpd/DMSO (mean) (NR2F6 LBD; 10 uM): 1.9 | Firefly LBD, cmpd/DMSO (mean) (NR2F6 LBD; 40 uM): 1.8 | Renilla LBD, cmpd/DMSO (mean) (Renilla [2]; 0.5 uM): 0.9 | Renilla LBD, cmpd/DMSO (mean) (Renilla [2]; 2 uM): 0.9 | Renilla LBD, cmpd/DMSO (mean) (Renilla [2]; 10 uM): 1.0 | Renilla LBD, cmpd/DMSO (mean) (Renilla [2]; 40 uM): 0.7

O=S1(=O)C[C@H](NCc2ccco2)[C@@H](S(=O)(=O)c2cccs2)C1 [Compound D135]
Firefly F4, cmpd/DMSO (mean) (NR2F6; 0.5 uM): 1.7 | Firefly F4, cmpd/DMSO (mean) (NR2F6; 2 uM): 2.4 | Firefly F4, cmpd/DMSO (mean) (NR2F6; 10 uM): 1.9 | Firefly F4, cmpd/DMSO (mean) (NR2F6; 40 uM): 2.8 | F4, Firefly/Renilla for S/B(F4) > 3 (NR2F6; 1% FBS, 40 uM): 1.9 | Firefly, F4/pGL4 for S/B(F4) > 3 (NR2F6; 1% FBS, 40 uM): 3.0 | F4, Firefly/Renilla for S/B(F4) > 3 (NR2F6; 10% FBS, 40 uM): 1.9 | Firefly, F4/pGL4 for S/B(F4) > 3 (NR2F6; 10% FBS, 40 uM): 2.3 | Firefly, F4, 1% FBS, cmpd/DMSO (mean) (NR2F6; 1% FBS, 0.5 uM): 1.2 | Firefly, F4, 1% FBS, cmpd/DMSO (mean) (NR2F6; 1% FBS, 2 uM): 1.6 | Firefly, F4, 1% FBS, cmpd/DMSO (mean) (NR2F6; 1% FBS, 10 uM): 1.1 | Firefly, F4, 1% FBS, cmpd/DMSO (mean) (NR2F6; 1% FBS, 40 uM): 3.3 | Firefly, F4, 10% FBS, cmpd/DMSO (mean) (NR2F6; 10% FBS, 0.5 uM): 1.0 | Firefly, F4, 10% FBS, cmpd/DMSO (mean) (NR2F6; 10% FBS, 2 uM): 0.7 | Firefly, F4, 10% FBS, cmpd/DMSO (mean) (NR2F6; 10% FBS, 10 uM): 1.8 | Firefly, F4, 10% FBS, cmpd/DMSO (mean) (NR2F6; 10% FBS, 40 uM): 3.7 | fold induction at 0.5 µM (Renilla [1]; [3]): 0.9 | fold induction at 2 µM (Renilla [1]; [3]): 1.2 | fold induction at 10 µM (Renilla [1]; [3]): 1 | fold induction at 40 µM (Renilla [1]; [3]): 1.3 | fold induction at 0.5 µM (Renilla [1]; [4]): 1 | fold induction at 2 µM (Renilla [1]; [4]): 1.3 | fold induction at 10 µM (Renilla [1]; [4]): 1.2 | fold induction at 40 µM (Renilla [1]; [4]): 1.7 | fold induction at 0.5 µM (Renilla [1]; [5]): 1 | fold induction at 2 µM (Renilla [1]; [5]): 1.1 | fold induction at 10 µM (Renilla [1]; [5]): 1.1 | fold induction at 40 µM (Renilla [1]; [5]): 1.9 | fold induction at 0.5 µM (HEK293 pGL4; [6]): 1 | fold induction at 2 µM (HEK293 pGL4; [7]): 1.6 | fold induction at 10 µM (HEK293 pGL4; [8]): 1.4 | fold induction at 40 µM (HEK293 pGL4; [9]): 1.3 | fold induction at 0.5 µM (HEK293 pGL4; [10]): 1 | fold induction at 2 µM (HEK293 pGL4; [11]): 1 | fold induction at 10 µM (HEK293 pGL4; [12]): 0.8 | fold induction at 40 µM (HEK293 pGL4; [13]): 1.1 | fold induction at 0.5 µM (HEK293 pGL4; [14]): 0.9 | fold induction at 2 µM (HEK293 pGL4; [15]): 1.1 | fold induction at 10 µM (HEK293 pGL4; [16]): 1.7 | fold induction at 40 µM (HEK293 pGL4; [17]): 1.6 | Firefly LBD, cmpd/DMSO (mean) (NR2F6 LBD; 0.5 uM): 1.4 | Firefly LBD, cmpd/DMSO (mean) (NR2F6 LBD; 2 uM): 1.7 | Firefly LBD, cmpd/DMSO (mean) (NR2F6 LBD; 10 uM): 1.6 | Firefly LBD, cmpd/DMSO (mean) (NR2F6 LBD; 40 uM): 2.8 | Renilla LBD, cmpd/DMSO (mean) (Renilla [2]; 0.5 uM): 0.9 | Renilla LBD, cmpd/DMSO (mean) (Renilla [2]; 2 uM): 0.9 | Renilla LBD, cmpd/DMSO (mean) (Renilla [2]; 10 uM): 0.8 | Renilla LBD, cmpd/DMSO (mean) (Renilla [2]; 40 uM): 0.9

Reference: patent publication US11377442B2, “Small molecule agonists and antagonists of NR2F6 activity” (ZANDER THERAPEUTICS, INC., priority 2016, dated 2022)
